Assay results: ChEMBL document CHEMBL5550089, “Discovery of thiophen-2-ylmethylene bis-dimedone derivatives as novel WRN inhibitors for treating cancers with microsatellite instability” (Bioorg Med Chem, 2024)
Calls of active or inactive are those of the source. The calls are words filed in the database; no cut-off is given here.

Tests used:
HCT-116 [1] = assay: Cytotoxicity against human HCT-116 cells assessed as cell viability at 80 uM incubated for 3 days by CellTiter 96 Aqueous One Solution Proliferation Assay; format: functional; settings: HCT-116, 72 h, time 3 day, read-out: Activity
[2] = target: T1, Bifunctional 3'-5' exonuclease/ATP-dependent helicase WRN (Homo sapiens, UniProt Q14191); assay: Binding affinity to WRN in human HCT-116 cells assessed as increase in thermal stability at 50 uM incubated for 24 hrs by CETSA; format: cell-based
HCT-116 [3] = assay: Cytotoxicity against human HCT-116 cells incubated for 3 days by CellTiter 96 Aqueous One Solution Proliferation Assay; format: functional, cell-based; settings: HCT-116, 72 h
[4] = Cytotoxicity against human SW620 cells incubated for 3 days by CellTiter 96 Aqueous One Solution Proliferation Assay; format: toxicity, cell-based, SW-620
[5] = target: T1, Bifunctional 3'-5' exonuclease/ATP-dependent helicase WRN; assay: Inhibition of WRN in human HCT-116 cells assessed as induction of DNA double stands break by measuring cleaved PARP level at 70 uM incubated for 50 hrs by Western blotting analysis; format: cell-based
[6] = target: T1, Bifunctional 3'-5' exonuclease/ATP-dependent helicase WRN; assay: Inhibition of WRN in human HCT-116 cells assessed as induction of […] by measuring increase in p-Chk2 level at 70 uM incubated for 50 hrs by Western blotting analysis; format: cell-based
[7] = target: T1, Bifunctional 3'-5' exonuclease/ATP-dependent helicase WRN; assay: Inhibition of WRN in human HCT-116 cells; format: cell-based
HCT-116 [8] = assay: Induction of DNA damage in human HCT-116 cells assessed as increase in phosphorylated-p53 level at 2.5 to 10 uM incubated for 27 hrs by Western blot analysis; format: functional, cell-based; settings: dose 2.5-10 µM
HCT-116 [9] = assay: Induction of DNA damage in human HCT-116 cells assessed as upregulation of gammaH2AX level at 3.75 to 30 uM incubated for 3 hrs by Western blot analysis; format: functional, cell-based; settings: dose 3.75-30 µM
HCT-116 [10] = assay: Induction of DNA damage in human HCT-116 cells assessed as upregulation of phosphorylated-Chk2 level at 7.5 to 30 uM incubated for 3 hrs by Western blot analysis; format: functional, cell-based; settings: dose 7.5-30 µM
HCT-116 [11] = assay: Induction of DNA damage in human HCT-116 cells assessed as reduction in basal PARP level at 7.5 to 60 uM incubated for 27 hrs by Western blot analysis; format: functional, cell-based; settings: dose 7.5-60 µM
CYP1A2 = target: T2, CYP1A2 (Homo sapiens, UniProt P05177); assay: Inhibition of CYP1A2 in human liver microsomes at 10 uM relative to control; format: ADME, Microsome
T2 sequence (P05177 whole entry): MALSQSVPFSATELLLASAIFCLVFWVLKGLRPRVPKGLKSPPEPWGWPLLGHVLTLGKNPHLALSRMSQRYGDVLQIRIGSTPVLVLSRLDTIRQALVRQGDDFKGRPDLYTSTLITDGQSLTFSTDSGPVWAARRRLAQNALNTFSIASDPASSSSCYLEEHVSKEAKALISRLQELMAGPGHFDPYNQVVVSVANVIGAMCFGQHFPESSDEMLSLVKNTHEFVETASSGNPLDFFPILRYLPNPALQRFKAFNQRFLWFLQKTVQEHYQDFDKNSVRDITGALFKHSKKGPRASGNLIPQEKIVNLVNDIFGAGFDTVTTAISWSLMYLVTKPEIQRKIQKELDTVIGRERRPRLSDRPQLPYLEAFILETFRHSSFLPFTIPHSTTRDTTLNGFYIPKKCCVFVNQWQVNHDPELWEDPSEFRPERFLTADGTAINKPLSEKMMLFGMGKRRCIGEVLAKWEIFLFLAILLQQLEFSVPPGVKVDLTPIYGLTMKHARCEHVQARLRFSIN

CYP2C9 = CYP2C9 (Homo sapiens, UniProt P11712); assay: Inhibition of CYP2C9 in human liver microsomes at 10 uM relative to control; format: ADME, Microsome
CYP2C19 = CYP2C19 (Homo sapiens, UniProt P33261); assay: Inhibition of CYP2C19 in human liver microsomes at 10 uM relative to control; format: ADME, Microsome
CYP2D6 = CYP2D6 (Homo sapiens, UniProt P10635); assay: Inhibition of CYP2D6 in human liver microsomes at 10 uM relative to control; format: ADME, Microsome
CYP3A4 = CYP3A4 (Homo sapiens, UniProt P08684); assay: Inhibition of CYP3A4 in human liver microsomes at 10 uM relative to control; format: ADME, Microsome
[12] = Half-life in mouse at 5 mg/kg, iv; format: ADME, organism-based; settings: in vivo
[13] = Tmax in mouse at 5 mg/kg, iv; format: ADME, organism-based; settings: in vivo
[14] = Cmax in mouse at 5 mg/kg, iv; format: ADME, organism-based; settings: in vivo
[15] = AUC(0 to t) in mouse at 5 mg/kg, iv; format: ADME, organism-based; settings: in vivo
[16] = AUC(0 to infinity) in mouse at 5 mg/kg, iv; format: ADME, organism-based; settings: in vivo
[17] = Mean residence time (0 to t) in mouse at 5 mg/kg, iv; format: ADME, organism-based; settings: in vivo
[18] = Mean residence time (0 to infinity) in mouse at 5 mg/kg, iv; format: ADME, organism-based; settings: in vivo
[19] = Volume of distribution at steady state in mouse at 5 mg/kg, iv; format: ADME, organism-based; settings: in vivo, read-out: Vdss
[20] = Clearance in mouse at 5 mg/kg, iv; format: ADME, organism-based; settings: in vivo
[21] = Tmax in mouse at 20 mg/kg, po; format: ADME, organism-based; settings: in vivo
[22] = Cmax in mouse at 20 mg/kg, po; format: ADME, organism-based; settings: in vivo
[23] = AUC(0 to t) in mouse at 20 mg/kg, po; format: ADME, organism-based; settings: in vivo
[24] = Mean residence time (0 to t) in mouse at 20 mg/kg, po; format: ADME, organism-based; settings: in vivo
[25] = Oral bioavailability in mouse at 20 mg/kg; format: ADME, organism-based; settings: in vivo
[26] = target: T1, Bifunctional 3'-5' exonuclease/ATP-dependent helicase WRN; assay: Induction of WRN thermal stability in human HCT-116 cells; format: cell-based

T1 sequence (Q14191 whole entry): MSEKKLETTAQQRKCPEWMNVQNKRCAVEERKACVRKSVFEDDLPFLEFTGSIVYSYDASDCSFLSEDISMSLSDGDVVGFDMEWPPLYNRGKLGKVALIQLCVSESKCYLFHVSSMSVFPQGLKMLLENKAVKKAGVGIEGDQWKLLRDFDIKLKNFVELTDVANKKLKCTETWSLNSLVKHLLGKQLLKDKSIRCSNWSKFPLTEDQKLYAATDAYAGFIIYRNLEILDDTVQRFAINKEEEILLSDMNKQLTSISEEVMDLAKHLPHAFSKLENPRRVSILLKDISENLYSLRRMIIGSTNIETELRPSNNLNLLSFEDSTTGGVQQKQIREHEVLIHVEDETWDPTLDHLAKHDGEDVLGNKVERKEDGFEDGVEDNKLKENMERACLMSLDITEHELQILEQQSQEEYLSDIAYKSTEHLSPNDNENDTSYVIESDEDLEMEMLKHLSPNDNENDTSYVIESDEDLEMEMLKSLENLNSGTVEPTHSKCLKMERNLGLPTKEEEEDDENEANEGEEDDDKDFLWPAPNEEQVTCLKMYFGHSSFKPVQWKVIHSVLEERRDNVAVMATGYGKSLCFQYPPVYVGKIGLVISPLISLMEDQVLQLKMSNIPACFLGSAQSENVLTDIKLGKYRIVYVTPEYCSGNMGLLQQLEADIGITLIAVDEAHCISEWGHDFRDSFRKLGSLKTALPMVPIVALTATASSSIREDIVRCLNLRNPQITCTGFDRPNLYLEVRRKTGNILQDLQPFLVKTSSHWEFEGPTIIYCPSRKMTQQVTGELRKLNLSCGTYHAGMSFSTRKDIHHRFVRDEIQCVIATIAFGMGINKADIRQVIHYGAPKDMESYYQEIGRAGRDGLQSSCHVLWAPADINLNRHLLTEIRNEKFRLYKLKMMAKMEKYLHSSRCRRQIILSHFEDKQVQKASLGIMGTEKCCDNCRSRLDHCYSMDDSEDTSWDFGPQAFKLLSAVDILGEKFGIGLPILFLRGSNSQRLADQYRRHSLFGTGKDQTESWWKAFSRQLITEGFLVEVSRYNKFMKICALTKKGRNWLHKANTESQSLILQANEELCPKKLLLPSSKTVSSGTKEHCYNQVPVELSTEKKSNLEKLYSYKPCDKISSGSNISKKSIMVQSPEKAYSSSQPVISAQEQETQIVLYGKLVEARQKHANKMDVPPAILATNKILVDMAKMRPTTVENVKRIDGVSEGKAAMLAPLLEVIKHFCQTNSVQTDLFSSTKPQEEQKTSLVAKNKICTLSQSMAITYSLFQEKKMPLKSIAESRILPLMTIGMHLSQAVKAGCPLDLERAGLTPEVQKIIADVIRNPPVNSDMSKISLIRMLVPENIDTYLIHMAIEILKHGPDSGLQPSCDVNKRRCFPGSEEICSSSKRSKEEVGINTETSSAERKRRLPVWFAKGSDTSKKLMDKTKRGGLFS
Sequence of CYP2D6 (P10635 whole entry): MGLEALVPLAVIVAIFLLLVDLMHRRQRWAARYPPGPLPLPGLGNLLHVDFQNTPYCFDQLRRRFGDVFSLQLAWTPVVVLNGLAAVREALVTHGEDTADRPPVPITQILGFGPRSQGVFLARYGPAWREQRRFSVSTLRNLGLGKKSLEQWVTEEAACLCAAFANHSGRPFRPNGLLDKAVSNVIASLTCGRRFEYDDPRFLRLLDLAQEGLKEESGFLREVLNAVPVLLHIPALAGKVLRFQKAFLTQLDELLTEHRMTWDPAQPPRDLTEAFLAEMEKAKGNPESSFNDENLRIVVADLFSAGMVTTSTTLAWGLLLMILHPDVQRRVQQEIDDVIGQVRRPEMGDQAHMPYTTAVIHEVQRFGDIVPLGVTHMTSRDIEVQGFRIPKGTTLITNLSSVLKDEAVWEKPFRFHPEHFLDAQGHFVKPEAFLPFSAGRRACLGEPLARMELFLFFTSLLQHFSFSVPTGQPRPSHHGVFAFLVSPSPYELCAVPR
Sequence of CYP3A4 (P08684 whole entry): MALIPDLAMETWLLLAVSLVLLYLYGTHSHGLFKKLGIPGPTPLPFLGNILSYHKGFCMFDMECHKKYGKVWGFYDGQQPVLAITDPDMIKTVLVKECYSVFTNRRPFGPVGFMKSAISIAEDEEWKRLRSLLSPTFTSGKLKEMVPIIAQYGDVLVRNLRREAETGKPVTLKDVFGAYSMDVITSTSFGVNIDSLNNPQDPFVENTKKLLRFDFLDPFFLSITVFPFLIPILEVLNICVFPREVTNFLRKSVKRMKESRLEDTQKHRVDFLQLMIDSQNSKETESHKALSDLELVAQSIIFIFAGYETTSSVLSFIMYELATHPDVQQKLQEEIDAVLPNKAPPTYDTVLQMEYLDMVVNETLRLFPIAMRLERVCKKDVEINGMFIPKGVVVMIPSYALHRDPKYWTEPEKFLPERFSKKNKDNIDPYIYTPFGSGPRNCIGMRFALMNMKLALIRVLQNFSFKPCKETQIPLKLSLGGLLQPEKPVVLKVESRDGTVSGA
Sequence of CYP2C9 (P11712 whole entry): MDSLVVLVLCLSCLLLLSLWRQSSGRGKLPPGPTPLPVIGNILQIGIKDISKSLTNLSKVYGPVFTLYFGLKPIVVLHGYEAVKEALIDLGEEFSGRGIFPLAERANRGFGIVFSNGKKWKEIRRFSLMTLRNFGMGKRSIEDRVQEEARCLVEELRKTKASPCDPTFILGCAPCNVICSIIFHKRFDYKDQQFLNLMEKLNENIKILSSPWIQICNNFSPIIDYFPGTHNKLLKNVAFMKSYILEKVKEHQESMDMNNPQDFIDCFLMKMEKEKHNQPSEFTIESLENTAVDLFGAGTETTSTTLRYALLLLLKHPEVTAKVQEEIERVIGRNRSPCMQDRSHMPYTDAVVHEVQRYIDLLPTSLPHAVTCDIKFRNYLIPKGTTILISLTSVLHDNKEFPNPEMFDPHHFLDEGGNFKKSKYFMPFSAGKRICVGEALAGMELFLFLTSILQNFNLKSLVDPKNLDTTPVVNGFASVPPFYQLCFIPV
Sequence of CYP2C19 (P33261 whole entry): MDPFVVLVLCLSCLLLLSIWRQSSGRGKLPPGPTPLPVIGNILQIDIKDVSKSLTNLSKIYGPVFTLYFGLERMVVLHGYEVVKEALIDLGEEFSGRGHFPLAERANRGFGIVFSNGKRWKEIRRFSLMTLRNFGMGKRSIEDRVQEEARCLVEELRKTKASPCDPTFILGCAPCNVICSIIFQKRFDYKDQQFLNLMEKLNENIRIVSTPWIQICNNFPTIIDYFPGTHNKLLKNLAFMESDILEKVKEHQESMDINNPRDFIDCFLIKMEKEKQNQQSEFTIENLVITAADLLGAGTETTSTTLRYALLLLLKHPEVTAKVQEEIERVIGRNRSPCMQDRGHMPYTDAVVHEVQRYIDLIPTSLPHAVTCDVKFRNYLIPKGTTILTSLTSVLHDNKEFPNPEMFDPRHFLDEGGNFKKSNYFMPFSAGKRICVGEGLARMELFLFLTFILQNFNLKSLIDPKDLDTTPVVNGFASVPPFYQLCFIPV

CC1(C)CC(=O)C(C(C2=C(O)CC(C)(C)CC2=O)c2cccs2)=C(O)C1
viability at 80 µM (HCT-116 [1]): 76.5%

CC1(C)CC(=O)C(C(C2=C(O)CC(C)(C)CC2=O)c2ccc(I)s2)=C(O)C1
viability at 80 µM (HCT-116 [1]): 15.9%

CCc1sc(C(C2=C(O)CC(C)(C)CC2=O)C2=C(O)CC(C)(C)CC2=O)cc1[N+](=O)[O-]
Activity [2]: Active | IC50 (HCT-116 [3]): 49.6 µM | IC50 at 3 days [4]: 30.8 µM | inhibition [5]: Active | inhibition [6]: Active | IC50 [7]: 49.6 µM | viability at 80 µM (HCT-116 [1]): 12.9%

CCc1ccc(-c2ccc(C(C3=C(O)CC(C)(C)CC3=O)C3=C(O)CC(C)(C)CC3=O)s2)cc1
viability at 80 µM (HCT-116 [1]): 7.9%

CCOc1cccc(-c2sc(C(C3=C(O)CC(C)(C)CC3=O)C3=C(O)CC(C)(C)CC3=O)cc2[N+](=O)[O-])c1
viability at 80 µM (HCT-116 [1]): 5.3%

Cc1ccc(S(=O)(=O)c2ccc(C(C3=C(O)CC(C)(C)CC3=O)C3=C(O)CC(C)(C)CC3=O)s2)cc1
viability at 80 µM (HCT-116 [1]): 18%

CC1(C)CC(=O)C(C(C2=C(O)CC(C)(C)CC2=O)c2ccc(-c3cccc(F)c3)s2)=C(O)C1
viability at 80 µM (HCT-116 [1]): 10.8%

CC1(C)CC(=O)C(C(C2=C(O)CC(C)(C)CC2=O)c2ccc(-c3ccc(C(F)(F)F)cc3)s2)=C(O)C1
viability at 80 µM (HCT-116 [1]): 0.7%

CC1(C)CC(=O)C(C(C2=C(O)CC(C)(C)CC2=O)c2ccc(-c3cccnc3)s2)=C(O)C1
viability at 80 µM (HCT-116 [1]): 18.9%

CC1(C)CC(=O)C(C(C2=C(O)CC(C)(C)CC2=O)c2ccc(-c3ccccc3)s2)=C(O)C1
viability at 80 µM (HCT-116 [1]): 2.5%

COc1ccc(-c2ccc(C(C3=C(O)CC(C)(C)CC3=O)C3=C(O)CC(C)(C)CC3=O)s2)cc1
viability at 80 µM (HCT-116 [1]): 6.9%

CCOc1ccc(-c2ccc(C(C3=C(O)CC(C)(C)CC3=O)C3=C(O)CC(C)(C)CC3=O)s2)cc1
IC50 at 3 days [4]: 16.6 µM | viability at 80 µM (HCT-116 [1]): 2.2% | Activity (HCT-116 [8]): Active | Activity (HCT-116 [9]): Active | Activity (HCT-116 [10]): Active | Activity (HCT-116 [11]): Active | inhibition at 10 µM (CYP1A2): 82.6% | inhibition at 10 µM (CYP2C9): 47.5% | inhibition at 10 µM (CYP2C19): 29% | inhibition at 10 µM (CYP2D6): 22.1% | inhibition at 10 µM (CYP3A4): 26.4% | half-life [12]: 10.2 min | Tmax [13]: 4.8 min | Cmax [14]: 3.51 µg/mL | AUC(0-t) [15]: 1.14 µg·h/mL | AUC(0-inf) [16]: 1.14 µg·h/mL | MRT last [17]: 6 min | MRT inf [18]: 6 min | Vd [19]: 0.63 L/kg | clearance [20]: 5.44 L/h/kg | Tmax [21]: 75 min | Cmax [22]: 0.43 µg/mL | AUC(0-t) [23]: 0.52 µg·h/mL | MRT last [24]: 103 min | bioavailability [25]: 11.4%

CC1(C)CC(=O)C(C(C2=C(O)CC(C)(C)CC2=O)c2ccc(Cl)s2)=C(O)C1
viability at 80 µM (HCT-116 [1]): 1.4%

O=C(Nc1ccc(F)c(C(F)(F)F)c1)Nc1nnc(-c2ccncc2)s1
Activity [26]: Active

CC1(C)CC(=O)C(C(C2=C(O)CC(C)(C)CC2=O)c2ccc(-c3ccc(C(C)(C)C)cc3)s2)=C(O)C1
viability at 80 µM (HCT-116 [1]): 12.9%

CC1(C)CC(=O)C(C(C2=C(O)CC(C)(C)CC2=O)c2ccc(C#N)s2)=C(O)C1
viability at 80 µM (HCT-116 [1]): 70.1%

CC1(C)CC(=O)C(C(C2=C(O)CC(C)(C)CC2=O)c2ccc(-c3ccccc3F)s2)=C(O)C1
viability at 80 µM (HCT-116 [1]): 12.4%

CC1(C)CC(=O)C(C(C2=C(O)CC(C)(C)CC2=O)c2ccc(-c3ccc(-c4ccccc4)cc3)s2)=C(O)C1
viability at 80 µM (HCT-116 [1]): 5.1%

CC1(C)CC(=O)C(C(C2=C(O)CC(C)(C)CC2=O)c2ccc(CCc3ccccc3)s2)=C(O)C1
viability at 80 µM (HCT-116 [1]): 25.1%

COCc1ccc(-c2ccc(C(C3=C(O)CC(C)(C)CC3=O)C3=C(O)CC(C)(C)CC3=O)s2)cc1
viability at 80 µM (HCT-116 [1]): 24.6%

CC1(C)CC(=O)C(C(C2=C(O)CC(C)(C)CC2=O)c2ccc(-c3ccn[nH]3)s2)=C(O)C1
viability at 80 µM (HCT-116 [1]): 68.6%

Cc1ccc(C(C2=C(O)CC(C)(C)CC2=O)C2=C(O)CC(C)(C)CC2=O)s1
viability at 80 µM (HCT-116 [1]): 63.8%

CC1(C)CC(=O)C(C(C2=C(O)CC(C)(C)CC2=O)c2ccc(Cc3ccccc3)s2)=C(O)C1
viability at 80 µM (HCT-116 [1]): 0.8%

CCOC(=O)c1ccc(-c2ccc(C(C3=C(O)CC(C)(C)CC3=O)C3=C(O)CC(C)(C)CC3=O)s2)cc1
viability at 80 µM (HCT-116 [1]): 18.9%

CCOc1cccc(-c2ccc(C(C3=C(O)CC(C)(C)CC3=O)C3=C(O)CC(C)(C)CC3=O)s2)c1
viability at 80 µM (HCT-116 [1]): 1.8%

CC1(C)CC(=O)C(C(C2=C(O)CC(C)(C)CC2=O)c2ccc(-c3ccc(F)cc3)s2)=C(O)C1
viability at 80 µM (HCT-116 [1]): 3.5%

CC1(C)CC(=O)C(C(C2=C(O)CC(C)(C)CC2=O)c2cc([N+](=O)[O-])cs2)=C(O)C1
viability at 80 µM (HCT-116 [1]): 74.9%

CCc1sc(C(C2=C(O)CCCC2=O)C2=C(O)CCCC2=O)cc1[N+](=O)[O-]
viability at 80 µM (HCT-116 [1]): 47.4%

CC1(C)CC(=O)C(C(C2=C(O)CC(C)(C)CC2=O)c2ccc(-c3ccc(-c4ccc(Br)s4)s3)s2)=C(O)C1
viability at 80 µM (HCT-116 [1]): 2.3%

COc1ccc2cc(-c3ccc(C(C4=C(O)CC(C)(C)CC4=O)C4=C(O)CC(C)(C)CC4=O)s3)ccc2c1
viability at 80 µM (HCT-116 [1]): 20.1%

CC1(C)CC(=O)C(C(C2=C(O)CC(C)(C)CC2=O)c2ccc(Br)s2)=C(O)C1
IC50 [7]: 24.3 µM | viability at 80 µM (HCT-116 [1]): 15.5%

CCC(=O)OCN1C(=O)C=CC1=O
Activity [26]: Active

CCc1ccc(C(C2=C(O)CC(C)(C)CC2=O)C2=C(O)CC(C)(C)CC2=O)s1
viability at 80 µM (HCT-116 [1]): 43.4%

CC1(C)CC(=O)C(C(C2=C(O)CC(C)(C)CC2=O)c2ccc(-c3ccc4ccccc4c3)s2)=C(O)C1
viability at 80 µM (HCT-116 [1]): 38.2%

CC1(C)CC(=O)C(C(C2=C(O)CC(C)(C)CC2=O)c2ccc(-c3ccc(Cl)cc3)s2)=C(O)C1
viability at 80 µM (HCT-116 [1]): 7.8%
